Test results: US20260021138A1, “EXTRACELLULAR VESICLES AND PARTICLES FROM IMMUNE CELLS FOR PROVIDING ANTICANCER ACTIVITY” (LIETUVOS SVEIKATOS MOKSLU UNIVERSITETAS, priority 2022, published 2026)

Legend:
HROG-36 GBM 3D spheroids = test: GBM cell migration area in 3D cell cultures; format: cell-based, human; settings: at higher concentrations
Protocol: For EV internalisation assessment in 2D GBM cell cultures, AF555-labelled EV solutions in PBS were applied to mixed glial and microglial cultures making a final concentration of 50 μg/mL of total EV protein. The cells were visualised by a fluorescent microscope Zeiss Axio Observer.Z1 (Carl Zeiss, Jena, Germany). For 3D GBM cell cultures, U-bottom 96-well plates were coated with a thin layer of 2% agarose prior to cell seeding. The cells were seeded at a density of 10000 per well, and the plate was centrifuged at 280×g for 7 min. […] The spheroid diameter was monitored under a light microscope on each day of culture (FIG. 17). […]
For EV efficiency on GBM cell migration in 3D GBM cell cultures, microscopic images of the cultures were taken at the start and at the end (72 hours), and the area covered by cells was calculated. […] Using the ImageJ software package, the area occupied by migrating spheroid cells was assessed, and the area of the spheroid at the initial time point was subtracted, as indicated in FIG. 24C. Representative images before and after treatment with U-937-derived macrophage and HMC-3 microglial EVs with and without DOX or TMZ and the same amount of free DOX are presented in FIG. 20-23, and quantitative assessment results—in FIG. 24.

[1] = test system: U-937-derived macrophage cell cultures; test: Total cell number after poly(I:C) treatment, macrophages; format: cell-based, human; settings: 24 hours after the poly(I:C) treatment; data not shown
Protocol: CELL CULTURES FOR EV PRODUCTION. Human monocytes U-937 (ATCC, CRL1593.2) were maintained in RPMI-1640 medium with GlutaMAX (Thermo Fisher Scientific) supplemented with 10% exosome-free FBS (Thermo Fisher Scientific) and 1000 IU/mL penicillin-streptomycin (Gibco, Thermo Fisher Scientific). U-937 were grown in T150 (30 mL medium) tissue culture flasks at 37° C. (incubator New Brunswick Galaxy 170S, Eppendorf) until the settled cells covered 65-75% of the vial bottom. For induction of cell differentiation, the cell medium was changed to Macrophage-SFM medium (Thermo Fisher Scientific) with 200 nM phorbol myristate acetate (PMA, Merck) and the cells were left for 24 hours in a Soft Flask. After this, the medium was replaced with Macrophage-SFM without PMA and kept in the incubator for 48 hours.
For TLR-3 pathway stimulation, U-937-derived macrophages and HMC-3 cells were treated with 10 μg/mL poly(I:C) for 1 hour (FIG. 1A, C). For induction of large EV shedding, the stimulation time was increased to 8 hours (FIG. 1B, D). After the treatments, the large EVs were collected by a series of centrifugation. First, the media were centrifuged for 10 min at 800×g to remove cells and large cell debri. Then, the supernatant was centrifuged at 14000×g for 30 minutes to spin down large EVs. The EV pellets were resuspended in PBS by pipetting up and down several times. […]

[2] = test system: human microglial cultures (HMC-3); test: Total cell number after poly(I:C) treatment, microglia; format: cell-based; settings: 24 hours after the poly(I:C) treatment; data not shown

Row | Compound | GBM migration suppression, free drug versus loaded EVs (HROG-36 GBM 3D spheroids) | Total cell numbers decreased by [1] [%] | cell numbers significantly increased by [2] [%]
1 | COc1cccc2c1C(=O)c1c(O)c3c(c(O)c1C2=O)C[C@@](O)(C(=O)CO)C[C@@H]3O[C@H]1C[C@H](N)[C@H](O)[C@H](C)O1 [DOX, doxorubicin] | more efficient | – | –
2 | poly(I:C) | – | 15±2 | 22±7
